Results on 102 compounds are retold here after PubChem BioAssay AID1996.

Converted amounts (≈) assume the structure as drawn.

The conditions of this data set: buffer; pH 7.4; 200.0 µM.
For the compound `N#CC1(c2ccccc2)CCC(=O)N1Cc1ccccc1` (configuration not stated), the solubility (kinetic) is more than 41.5 µg/mL.
With `S=C1NC2(CCCCCC2)N=C1c1ccccc1` the figure was 2.8 µg/mL (≈ 10.8 µM).
`COc1ccc(N(C)S(=O)(=O)c2cccc(C(=O)OCC(=O)N(C)c3ccccc3)c2)cc1` registered a kinetic solubility of 7.9 µg/mL (≈ 16.9 µM).
Turning to `Cc1ccccc1C(=O)NC1CCN(CC(=O)NCc2ccccc2)CC1`, the kinetic solubility amounted to 47.7 µg/mL (≈ 131 µM).
In the case of `CCn1cc(S(=O)(=O)Nc2cc(C(=O)OC)ccc2C)cn1` it was more than 48.5 µg/mL; in that of `COc1cccc(C(=O)N2CCCN(C)CC2)c1OC`, 36.2 µg/mL (≈ 130 µM); in that of `CNS(=O)(=O)c1cccc(C(=O)OCC(=O)NC2CCCC(C)C2C)c1` (configuration not stated), 12.7 µg/mL (≈ 33.2 µM).
On to `CC12CCC(C(=O)NCc3ccccc3Cl)(OC1=O)C2(C)C` (configuration not stated), for which the solubility (kinetic) is more than 48.3 µg/mL.
On to `Cn1cccc/c1=N\c1cccc[n+]1C.[I-]`, for which the kinetic solubility is more than 49.1 µg/mL.
With `COC(=O)c1ccc(N2CCc3ccccc32)c([N+](=O)[O-])c1` the figure was 1 µg/mL (≈ 3.35 µM); with `Nc1nc(Cl)nc2ncn(Cc3ccccc3)c12`, more than 39 µg/mL; with `O=C1NC(=S)N(C(=O)c2ccc(F)cc2)/C1=C/c1cccnc1`, 2 µg/mL (≈ 6.11 µM).
On to `Cc1cccc(C(=O)OCC(=O)NC(=O)Cc2ccccc2)c1O`, for which the kinetic solubility worked out at 5.8 µg/mL (≈ 17.7 µM).
In the case of `Cc1c(NC(=O)CSCc2ccccc2)cccc1C(=O)O` it was more than 47.3 µg/mL.
With `Cc1ccc(S(=O)(=O)N2CCN(C(=O)c3cccs3)CC2)cc1C` the figure was 44.4 µg/mL (≈ 122 µM); with `Cc1ccccc1C1NC(c2ccccc2C)C([N+](=O)[O-])C(C)(C)C1[N+](=O)[O-]` (configuration not stated), 0.3 µg/mL (≈ 0.782 µM).
With `Clc1ccc(-c2ccc(CN3CCCCC3)o2)cc1` the figure was 30.1 µg/mL (≈ 109 µM); with `CC(C)C(=O)Nc1c2c(nn1-c1ccc(F)cc1)CS(=O)(=O)C2`, more than 50.6 µg/mL.
`Cn1c(C(=O)Nc2ccc(Cl)cc2)cc2cc(Cl)ccc21` returned a kinetic solubility of less than 0.3 µg/mL.
In the case of `CN(C(=O)COC(=O)CNC(=O)c1sc2ccccc2c1Cl)C1CCS(=O)(=O)C1` (configuration not stated) it was more than 68.8 µg/mL.
In turn, `Cc1nc(-c2ccc(NC(=O)c3ccco3)cc2)cs1` returned a kinetic solubility of 18.2 µg/mL (≈ 64 µM).
With `COc1ccc(C(=O)CC(=O)C(=O)Nc2ccc(C)c(C)c2)cc1` the figure was 12.4 µg/mL (≈ 38.1 µM); with `O=C(Cc1csc(-c2ccccc2)n1)NCc1cccs1`, 15.6 µg/mL (≈ 49.6 µM).
With `COc1cccc(CNc2ccc([N+](=O)[O-])cc2C)c1` the figure was 1.3 µg/mL (≈ 4.77 µM); with `COc1cccc(N/C=C/C(=O)c2ccc(OC)c(OC)c2)c1`, 2.3 µg/mL (≈ 7.34 µM).
In the case of `CCCCn1c(SCC(N)=O)nc2sc3c(c2c1=O)CCC3` it was 1.9 µg/mL (≈ 5.63 µM); in that of `CN1CN=C(NS(=O)(=O)c2ccc([N+](=O)[O-])cc2)NC1`, more than 44.9 µg/mL; in that of `CCCOc1cc(C)c(S(=O)(=O)NCc2cccs2)cc1C`, 9.1 µg/mL (≈ 26.8 µM).
In the case of `O=C(O)C1CCN(c2ccc([N+](=O)[O-])cc2[N+](=O)[O-])CC1`, the solubility (kinetic) is more than 44.3 µg/mL.
In the case of `C=CCn1c(P(C)(=O)[O-])nc2ccccc21.[K+]` it was more than 41.1 µg/mL; in that of `O=c1c2ccccc2nc(-c2ccccc2Cl)n1-c1ccc(O)cc1`, more than 52.3 µg/mL; in that of `N#Cc1cc2c(nc1S(=O)(=O)Cc1ccccc1)CCCC2`, 30.7 µg/mL (≈ 98.3 µM).
In the case of `N#Cc1ccccc1COC(=O)c1cc(=O)c2ccccc2o1` it was 16.7 µg/mL (≈ 54.7 µM).
Compound `CC(C)CCc1c(O)nc(SCC(C)C)[nH]c1=O` returned a solubility (kinetic) of more than 40.6 µg/mL.
In the case of `CC(NCC(O)c1ccc([N+](=O)[O-])cc1)C12CC3CC(CC(C3)C1)C2` (configuration not stated) it was 38.3 µg/mL (≈ 111 µM).
`N#C/C(=C\c1cccnc1)C(=O)Nc1ccccc1[N+](=O)[O-]`: the kinetic solubility amounted to 30.2 µg/mL (≈ 103 µM).
In the case of `O=C(Nc1ccccc1)Nc1ccc(NC(=O)c2ccccc2O)cc1`, the kinetic solubility was less than 0.2 µg/mL.
With `O=C(O)C(=O)O.O=S(=O)(c1cccc(C(F)(F)F)c1)N1CCN(CC(O)COCc2ccccc2)CC1` (configuration not stated) the figure was more than 82.3 µg/mL; with `CC1CC(=O)Nc2ccccc2N1C(=O)Nc1ccc(F)cc1` (configuration not stated), more than 47 µg/mL; with `COc1ccc(Nc2ccc(N3C(=O)CCC3=O)cc2[N+](=O)[O-])cn1`, 3.1 µg/mL (≈ 9.06 µM).
In the case of `CCOCCn1c2ccccc2c2nc3ccccc3nc21` it was 4.1 µg/mL (≈ 14.1 µM); in that of `C[N+]1(C)C2CCC1CC(OC(=O)c1ccco1)C2.[Br-]` (configuration not stated), 48.5 µg/mL; in that of `C=CCn1c(O)c(C(C)=NCCCn2ccnc2)c(=O)[nH]c1=O`, more than 47.6 µg/mL.
In the case of `CN(CCN1CCOCC1)Cc1nc(-c2ccccc2)no1` it was more than 45.4 µg/mL.
`CC1=Nc2ccccc2N=C(NC(=O)/C=C/C(=O)O)C1c1ccccc1` (configuration not stated) gave a solubility (kinetic) of more than 52.1 µg/mL.
In the case of `O=C(NCCO)C(=O)Nc1cc2c3c(c1)CC(=O)N3CCC2` it was more than 45.5 µg/mL; in that of `Cc1csc(NC(=O)CCCC(=O)O)c1-c1nc2ccccc2s1`, more than 54.1 µg/mL; in that of `O=c1[nH]c(Cc2ccccc2)nc2ccccc12`, 2.5 µg/mL (≈ 10.6 µM).
In the case of `CC(C)(C)c1ccc(C(=O)NCCc2ccccc2)cc1` it was 0.8 µg/mL (≈ 2.84 µM); in that of `O=C(CCN1N=C(c2ccccc2)CCC1=O)NC1CCCC1`, more than 47 µg/mL.
Consider `CCN(C(=O)COC(=O)/C=C/c1ccco1)C1CCCCC1`, for which the solubility (kinetic) turned out to be 39.1 µg/mL (≈ 128 µM).
In turn, `CC1Cc2ccccc2N1Cc1cccc([N+](=O)[O-])c1` (configuration not stated) registered a kinetic solubility of 3.6 µg/mL (≈ 13.4 µM).
In the case of `CC(=O)Nc1ccc(S(=O)(=O)Nc2nc3ccccc3nc2Nc2ccc(C(=O)O)c(O)c2)cc1` it was more than 74 µg/mL; in that of `C=CCN1C(=S)CC(c2ccccc2)=Nc2ccccc21`, 3.3 µg/mL (≈ 11.3 µM).
In turn, `CC(NC(=O)c1ccco1)c1nc(-c2ccccc2)no1` (configuration not stated) showed a kinetic solubility of 31.7 µg/mL (≈ 112 µM).
In the case of `Clc1ccc(-c2csc(-c3cccnc3)n2)s1` it was 0.7 µg/mL (≈ 2.51 µM); in that of `Cc1ccnc(NC(=O)Cc2c(F)cccc2Cl)c1`, more than 41.8 µg/mL.
Compound `Nc1nc(Nc2ccc(Cl)cc2)nc(NCCO)c1[N+](=O)[O-]` yielded a kinetic solubility of 3.1 µg/mL (≈ 9.55 µM).
In the case of `Cc1cccc(NC(=O)CCN2C(=O)c3ccccc3C2=O)c1` it was more than 46.3 µg/mL.
With `O=C(NCCCl)C1Cc2c(ccc3ccccc23)O1` (configuration not stated) the figure was 40.2 µg/mL (≈ 146 µM); with `O=C(O)C(=O)O.c1ccc2c(c1)CCN(C1CCCCC1)C2`, 44 µg/mL; with `CCC1CN(C(=O)NCc2cccc(OC)c2)c2ccccc2O1` (configuration not stated), 43.3 µg/mL (≈ 133 µM).
With `O=c1c(Cl)c2oc3ccccc3nc-2c2ccccc12` the figure was 4.2 µg/mL (≈ 14.9 µM).
The compound `CC(=O)c1ccc(NC(=O)COC(=O)/C=C/c2cccs2)cc1` gave a solubility (kinetic) of 7.3 µg/mL (≈ 22.2 µM).
With `Clc1cccc(Cl)c1CO/N=C/c1cccs1` the figure was more than 42.9 µg/mL; with `O=C(COC(=O)/C=C/c1ccccc1)NC1CCCCCC1`, 10.4 µg/mL (≈ 34.5 µM); with `COc1ccccc1NC(=O)C(C)OC(=O)CC1CCCC1` (configuration not stated), 29.4 µg/mL (≈ 96.3 µM).
With `COc1ccc(OC)c(N/C=C/C(=O)c2ccccc2)c1` the figure was 2.1 µg/mL (≈ 7.41 µM); with `CC1CCc2ccccc2N1C(=N)N(C)C.Cl` (configuration not stated), more than 38.1 µg/mL; with `CN(C)S(=O)(=O)Nc1cccc(Br)c1`, more than 41.9 µg/mL.
In the case of `O=C(O)c1cc(-c2cccc([N+](=O)[O-])c2)nc2ccccc12` it was more than 44.1 µg/mL.
For `COc1cc(NC(=O)c2ccc(Cl)cc2)c2ncccc2c1`, the solubility (kinetic) was less than 0.3 µg/mL.
With `CCN(CC)Cc1cc(O)c(CN(CC)CC)cc1O` the figure was more than 42.1 µg/mL; with `N/C(=N\OC(=O)CSc1ccccc1)c1ccccn1`, more than 43.1 µg/mL; with `CC(C)CC1NC(=O)N(CC(=O)Nc2ccc3c(c2)CCC3)C1=O` (configuration not stated), 5.6 µg/mL (≈ 17 µM).
Compound `Oc1c(CN2CCCCC2)cc(Br)c2cccnc12` registered a kinetic solubility of 33.6 µg/mL (≈ 105 µM).
With `COc1ccc(NCC(=O)Nc2cccc(S(=O)(=O)N3CCCC3)c2)cc1Cl` the figure was 13.6 µg/mL (≈ 32.1 µM); with `O=C(CN1CCN(c2ccc(Cl)cc2[N+](=O)[O-])CC1)N1CCOCC1`, more than 55.3 µg/mL.
In the case of `COc1ccc(NC(=O)CN2C(=O)NC3(CCCCCC3)C2=O)cc1Cl` it was 13.8 µg/mL (≈ 36.3 µM); in that of `O=C(CCCCC(=O)NCCc1ccccc1)NCCc1ccccc1`, 2.8 µg/mL (≈ 7.94 µM); in that of `Cl.O=C(Nc1cccc(Cl)c1)NC1CCN(C2CCCCC2)C1` (configuration not stated), more than 53.7 µg/mL.
With `COc1ccccc1NS(=O)(=O)c1ccc2[nH]c(=S)oc2c1` the figure was more than 50.5 µg/mL.
Regarding `N#C/C(=C\c1ccc(O)cc1)C(=O)NCc1cccc(Cl)c1`, the solubility (kinetic) is less than 0.3 µg/mL.
The compound `N#CCc1c(C#N)c(N)nc(N2CCN(C=O)CC2)c1C#N` gave a solubility (kinetic) of more than 44.3 µg/mL.
With `O=C(NCCc1c[nH]c2ccccc12)c1cnccn1` the figure was more than 39.9 µg/mL; with `C=C(C)CNC(=S)Nc1cccc(N)n1`, more than 33.3 µg/mL; with `N#C/C(=C\c1ccccc1)C(=O)N1CCC(C(N)=O)CC1`, 40.1 µg/mL (≈ 142 µM).
In the case of `CSc1ccccc1NC(=O)CSc1nncs1` it was more than 44.6 µg/mL; in that of `O=C(COc1ccccc1[N+](=O)[O-])NCC1(N2CCOCC2)CCCCC1`, more than 56.6 µg/mL.
In the case of `CCS(=O)(=O)N1CCCC(C(=O)c2ccc(OC)cc2C)C1` (configuration not stated) it was 42 µg/mL (≈ 129 µM); in that of `CCc1ccc(Oc2ncnc(N)c2[N+](=O)[O-])cc1`, 5 µg/mL (≈ 19.2 µM); in that of `O=C(Nc1cccc(Cl)c1)C1CCN(C(=O)c2cccs2)CC1`, 48.4 µg/mL (≈ 139 µM).
In the case of `COc1cc2nc(Cl)nc(N3CCOCC3)c2cc1OC`, the solubility (kinetic) was found to be 13.1 µg/mL (≈ 42.3 µM).
Turning to `CC1(C)CC2CC(C)(CN2C(=O)COC(=O)c2ccc(NC(=O)CC#N)cc2)C1` (configuration not stated), the kinetic solubility came out at 7.6 µg/mL (≈ 19.1 µM).
In the case of `O=C(Nc1ccc(OCC(=O)N2CCOCC2)cc1)c1ccccc1F` it was more than 53.8 µg/mL.
With `COc1cccc(-c2nc(-c3cccs3)no2)c1` the figure was less than 0.3 µg/mL; with `O=C(COC(=O)c1cnccn1)NCc1ccc(Cl)cc1`, more than 45.9 µg/mL.
In the case of `Cc1ccc(-c2nonc2NC(=O)c2ccco2)cc1` it was more than 40.4 µg/mL.
`CC(=O)c1ccc(NC(=O)C(C)Nc2ccc(Cl)cc2)cc1` (configuration not stated) came in with a solubility (kinetic) of 40.9 µg/mL (≈ 129 µM).
In the case of `O=c1c2sc3ccccc3c2[nH]c(=S)n1CCN1CCOCC1` it was 49.9 µg/mL (≈ 144 µM).
`Cc1ccccc1CC(=O)NC1CCCCCC1`: the solubility (kinetic) worked out at 11.1 µg/mL (≈ 45.2 µM).
In the case of `O=C(OC(C(=O)c1c[nH]c2ccccc12)c1ccccc1)c1cnccn1` (configuration not stated) it was 47 µg/mL (≈ 132 µM).

The term solubility (kinetic) denotes the concentration staying in solution when a stock, usually in DMSO, is diluted into the medium.
